Results taken from patent US12258338B2, “Modulators of the integrated stress response pathway” (EVOTEC INTERNATIONAL GMBH, priority 2019, dated 2025).
Values after ≈ are worked out from the molar mass of the structure shown. Like-named read-outs stand apart in the source and are kept apart here.

Legend:
ATF4 = assay: HEK-ATF4 High Content Imaging assay (prevention of Tunicamycin induced ISR; ATF4 signal ratio between nucleus and cytoplasm); type: cell-based; details: Table 24 category key; read-out: HEK-ATF4 Activity*
Summary of the method: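 Wild-type HEK293 cells in 0.3% FBS medium were co-treated with compounds and Tunicamycin (3.3 μM in prediluted medium, 11-fold over final) for 6 h at 37 °C. Fixed cells were immunostained for ATF4 with Hoechst nuclei; imaging gave nuclear/cytoplasmic ATF4 ratio, with nuclei counts as toxicity control.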

[1] = Thermodynamic (Equilibrium) solubility in selected buffer; type: physicochemical; details: aqueous buffer, thermodynamic from solid, Table 24
Summary of the method: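 Powdered compound at 1 mg/mL target in 50 mM phosphate pH 2.0, 50 mM acetate pH 5.5 or 50 mM phosphate pH 7.4, stirred overnight at r.t. in the dark, then 0.45 μm filtered. Filtrate quantified by UPLC-UV peak area against a 0.8 mg/mL DMSO reference.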

[2] = Log D 7.4 assay (1-octanol / phosphate buffer pH 7.4); type: physicochemical
Experimental: Phosphate buffer (1 M) was diluted to 20 mM with deionised water and adjusted to pH 7.4 (±0.05) with phosphoric acid or sodium hydroxide. A 1:1 mixture of phosphate buffer (20 mM) and 1-octanol were saturated by tumbling overnight after which time the two phases were separated. Using an automated liquid handler the following procedure was carried out: 20 mM DMSO stocks of assay and control compounds were reformatted to provide cassettes of 4 compounds per well giving a final concentration of 5 mM per compound. In duplicate 5 μL of the cassetted compounds were added to 495 μL 1-octanol (saturated with buffer) followed by 495 μL of buffer (saturated with 1-octanol) in a 96-well plate giving final incubation concentrations of 25 μM (50 μM max concentration in either layer if all compound partitioned into a single matrix). The layers were mixed by aspirating and dispensing the buffer and octanol layers into one another three times. The plate was sealed, shaken for 120 minutes and then centrifuged at 25° C. for 15 min at 4600 rpm. The 1-octanol and buffer layer were sampled separately (ensuring no cross contamination) and the respective samples diluted with 60:40 ACN:0.1 M ammonium acetate pH 7.4 (containing external standard; Sulfisoxazole, assay concentration 120 nM) to obtain final theoretical maximum concentrations of the 1-octanol layer of 0.025 μM, 0.5 μM and a buffer layer concentration of 0.5 μM. The second buffer sample was prepared by diluting the assay buffer layer with acetonitrile (containing external standard; Sulfisoxazole, assay concentration 120 nM) to give a theoretical maximum concentration of 20 μM. The analytical samples were analysed by LC-MS/MS and the Log D calculated as shown:
[formula] Where PA=Peak area and ES=External standard

[3] = biological target: T1, human ERG potassium channel (hERG) (Homo sapiens, UniProt Q12809); assay: hERG channel tail current recording using in vitro Rapid ICE (automated patch-clamp, QPatch HTX); type: cell-based; details: Table 24
T1 construct: expressed in transfected cells; host or cells: HEK293, stably transfected, tetracycline-inducible promoter
T1 sequence (Q12809 whole entry): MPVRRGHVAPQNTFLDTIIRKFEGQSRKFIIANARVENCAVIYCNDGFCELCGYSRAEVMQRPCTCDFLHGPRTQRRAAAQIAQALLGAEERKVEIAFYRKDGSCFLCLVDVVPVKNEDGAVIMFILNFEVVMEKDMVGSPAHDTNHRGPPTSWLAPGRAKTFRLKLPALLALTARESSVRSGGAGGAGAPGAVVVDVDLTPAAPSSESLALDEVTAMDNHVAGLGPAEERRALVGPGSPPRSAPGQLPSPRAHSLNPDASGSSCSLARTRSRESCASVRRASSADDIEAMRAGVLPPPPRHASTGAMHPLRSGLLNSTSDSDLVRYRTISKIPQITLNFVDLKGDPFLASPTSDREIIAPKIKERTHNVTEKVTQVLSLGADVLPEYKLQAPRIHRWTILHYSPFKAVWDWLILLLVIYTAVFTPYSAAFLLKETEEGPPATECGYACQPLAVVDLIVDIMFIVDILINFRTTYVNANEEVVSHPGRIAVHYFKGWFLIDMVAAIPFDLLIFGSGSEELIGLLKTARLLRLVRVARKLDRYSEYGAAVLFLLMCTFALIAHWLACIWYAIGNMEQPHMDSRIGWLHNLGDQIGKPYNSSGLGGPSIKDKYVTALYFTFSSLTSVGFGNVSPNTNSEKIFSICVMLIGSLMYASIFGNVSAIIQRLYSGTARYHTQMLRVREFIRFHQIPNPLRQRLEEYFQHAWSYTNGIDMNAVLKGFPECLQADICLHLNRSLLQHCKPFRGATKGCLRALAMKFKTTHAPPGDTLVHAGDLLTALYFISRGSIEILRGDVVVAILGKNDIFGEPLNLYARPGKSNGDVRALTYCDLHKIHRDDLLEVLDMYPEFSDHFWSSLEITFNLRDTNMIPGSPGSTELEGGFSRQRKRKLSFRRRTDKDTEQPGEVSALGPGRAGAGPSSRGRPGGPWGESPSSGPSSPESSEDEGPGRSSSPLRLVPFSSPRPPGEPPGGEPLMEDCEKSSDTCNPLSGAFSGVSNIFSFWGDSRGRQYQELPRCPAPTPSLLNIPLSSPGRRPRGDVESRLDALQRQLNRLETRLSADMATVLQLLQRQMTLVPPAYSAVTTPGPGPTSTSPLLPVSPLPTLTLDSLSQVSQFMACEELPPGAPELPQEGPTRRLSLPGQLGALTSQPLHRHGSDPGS
Summary of the method: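 Automated patch clamp on tetracycline-induced HEK293 hERG cells; pulse −80 to −50 mV 200 ms, +20 mV 4.8 s, −50 mV 5 s tail, extracellular pH 7.4. Compound at 0.3, 3, 30 μM (0.3% DMSO), 5 min exposure; tail current versus vehicle gives % inhibition and estimated IC50.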

[4] = acetate buffer 50 mM, pH 5, read-out: Solubility (μg/mL) pH 5
[5] = phosphate buffer 50 mM, pH 2, read-out: Solubility (μg/mL) pH 2
[6] = phosphate buffer 50 mM, pH 7.4, read-out: Solubility (μg/mL) pH 7.4

Row | Compound | IC50 (ATF4) [nM] | solubility [1, 4] [µg/mL] | solubility [1, 5] [µg/mL] | solubility [1, 6] [µg/mL] | logD at 120 min [2] | IC50 [3] [nM]
1 | O=C(COc1ccc(Cl)c(F)c1)N[C@@H]1CC[C@@H](c2nnc([C@H]3C[C@@H](OC(F)(F)F)C3)o2)OC1 [WO201904 6779 Ex 1, reference compound] | 1 to 500 | < 1 | < 1 | < 1 | 3.6 | 1000 to 5000
2 | O=C(COc1ccc(Cl)c(F)c1)N[C@@H]1CC[C@@H](c2nnc(COC(F)(F)F)o2)OC1 [WO201904 6779 Ex 30, reference compound] | 500 to 2000 | 3 (≈ 6.61 µM) | 3 (≈ 6.61 µM) | 3 (≈ 6.61 µM) | 2.9 | 1 to 1000
